In patent EP0727211A1, “Use of src SH2 specific compounds to treat a bone resorption disease” (SMITHKLINE BEECHAM CORPORATION, priority 1995, dated 1996):

Target: T1, human lck SH2 domain (Homo sapiens, UniProt P06239)
T1 construct: Cloning and expression of human lck SH2 domain containing tags and an enterokinase proteolytic cleavage site; made in house; host or cells: E. coli AR120
Assay: SH2 domain / pY peptide binding assay (ELISA-based, 96 well plate), lck SH2
Conditions: for Ki: Ki calculated from IC50 by the expanded equation, Table II; for IC50: cloned human SH2 domain fusion protein, 0.1 uM biotinylated pY peptide, Table I
Method: The inhibitory activity of compounds at the different human SH2 domains was determined in vitro using SH2 domains expressed as fusion proteins in E. coli. The SH2 domains used herein were the human forms of the src SH2 domain, Grb2 SH2 domain, lck SH2 domain, fyn SH2 domain, SH-PTP2 SH2 domain, p85 SH2 domain and hcp SH2 domain.
The fusion proteins containing the src, lck and hcp SH2 domains were expressed as the general sequence: DET1-DET2-spacer-ek-SH2, where DETI, DET2, spacer, ek and SH2 are as described below. DET1 ("defined epitope tag 1") (SEQ ID NO: 1) is an 11 amino acid sequence found in the Human Immunodeficiency Virus Type 1 (HIV-1) envelope protein gp120 (or gp160). Monoclonal antibodies to various epitopes of HIV-1 gp120 (or gp160) are known in the art, see, for example U.S. Patent 5,166,050. One preferred example is monoclonal antibody 178.1 (see, e.g., Thiriart et al., J. Immunol., 143:1832-1836 (1989)), which was prepared by immunization of mice with a yeast-expressed HIV-1 gp160 molecule from strain BH10 (Ratner et al., Nature, 313:277-284 (1985)). This tag was used for detection of expression (by Western blot), for purification of the protein (by affinity chromatography), and for configuring assays in which the fusion protein was captured or immobilized using the 178.1 antibody. DET2 is a hexahistidine sequence tag (SEQ ID NO: 2) which binds to nickel-containing resins and was used for purification purposes. Spacer (SEQ ID NO: 3) was utilized to design a BamH1 restriction site at the indicated position of the construct. The term -ekrefers to a recognition sequence (SEQ ID NO: 4) for the enterokinase protease which provides for the optional removal of the tags from the SH2 domain, thus producing an SH2 domain that contains no extraneous amino acids. SH2 domains which contain no extraneous amino acids are preferable to tagged protein for crystallography studies. SH2 refers to the SH2 domains of different proteins.
Cloning and expression of human lck SH2 domain containing tags and an enterokinase proteolytic cleavage site (DET1-DET2-spacer-ek-lck SH2).
A DNA sequence encoding protein ek-lck SH2 was PCR amplified from a cDNA clone containing the human lck gene (Genbank accession number M36881) using the following primers: [formula]
The PCR product was digested with BamHI and XbaI, followed by isolation of the digested fragment on an agarose gel. The fragment was ligated into BamHI-XbaI-digested expression vector containing the tagged chicken src gene DET1-DET2-spacer-SH2 described in Procedure 1 above. In that vector, the BamHI site is located in between the coding regions for DET2 and SH2, and the XbaI site is located after the 3' end of the SH2 coding region. Thus, the ek-lck SH2 sequence replaced the src SH2 sequence in the above vector. The ligation reaction was used to transform E. coli MM294cI^+. The construct containing […] was confirmed by DNA sequencing (SEQ ID NO: 6) and induced in E. coli strain AR120 as described in Procedure 1 above. A Coomassie-Blue-stained, Western-blot-positive induced protein band with an apparent molecular weight of 17,000 was observed after nalidixic acid induction.
Cells were lysed at neutral pH by sonication in the presance of lysozyme. After centrifugation, the soluble extract was chromatographed on a Ni^++NTA column. After washing the column with equilibration buffer (Tris buffer pH 8 containing 0.5 M NaCl) and the same buffer containing 15 mM imidazole, the protein was eluted in highly purified form with 25 mM imidazole in equilibration buffer.
The binding assays for the SH2 domains and pY peptides were performed in an ELISA-based 96 well plate assay. In Millipore 96 well filter plates, hydrophilic Durapore® (pore size 0.65um Cat. No. MADVN6550), was added 2 ul (50% suspension) of Protein-G Sepharose (available from Pharmacia of N.J. Cat. No. 17-0618-01) and either 2 ul of 2 mg/ml of MAB178. […]

T1 sequence (P06239 127-224 limits assumed): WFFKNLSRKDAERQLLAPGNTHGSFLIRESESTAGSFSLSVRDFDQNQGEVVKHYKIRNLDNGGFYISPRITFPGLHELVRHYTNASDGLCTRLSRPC

Row | Compound | Ki | IC50
1 | CCCCCCNC(=O)[C@H]1CC[C@H](CNC(=O)c2ccc([N+](=O)[O-])cc2)CC1 [Compound 7, 4-nitro-benzamido-trans-4-methyl-cyclohexyl-N-hexyl carboxamide] | 320 µM | 383 µM
2 | N[C@@H](Cc1cc(Br)c(Oc2ccc(O)c(Cc3ccc(O)nn3)c2)c(Br)c1)C(=O)O [Compound 2, L-3,5-Dibromo-3'-(6-oxo-3(1H)-pyridazinylmethyl)-thyronine] | > 1000 µM | > 300 µM
3 | CCCNC(=O)[C@H]1CC[C@H](CNC(=O)/C=C/c2ccc(C=O)cc2)CC1 [Compound 9, 4-formyl-E-cinnamido-trans-4-methyl-cyclohexyl-N-(propyl) carboxamide] | 146 µM | 200 µM
4 | 4-acetamido-benzamido-trans-4-methyl-cyclohexyl-N-1-(amino-R-2-(methoxy methyl)-pyrrolidine) carboxamide [Compound 8] | 360 µM | 126 µM
5 | Cc1ccc(C(=O)c2ccc(C(=O)c3ccc(CC=O)cc3)cc2)cc1 [Compound 4, 4-[4-(4-Methylbenzoyl)benzoyl]phenylacetaldehyde] | 163 µM | 163 µM

Second part, the compound after the results:

Row | Ki | IC50 | Compound
6 | 11 µM | 22.9 µM | Cc1nc2sc3c(c2c2[nH][nH]c(=O)c12)CCC1(C3)OCCO1 [Compound 3, 8,8-Ethylenedioxy-2,3,7,8,9,10-hexahydro-4-methyl-1H-benzo[b]thieno[2,3-b]pyrazolo[3,4-d]pyridin-3-one]
7 |  | 6 µM | Cc1nnc(SCC2=C(C(=O)O)N3C(=O)[C@@H](NC(=O)C(N)c4ccc(C(=O)O)cc4)[C@H]3SC2)s1 (stereo partly drawn) [Compound 1, 7-[D,L-α-Amino-α-(4-carboxyphenyl)acetamido]-3-[2-(5-methyl-1,3,4-thiadiazolyl)thiomethyl]Δ^3-cephem-4-carboxylic Acid]
8 | 149 µM | 100 µM | Cc1nc2sc3c(c2c2c1c(=O)[nH]n2C)CCC1(C3)OCCO1 [Compound 5, 1,4-Dimethyl-8,8-ethylenedioxy-2,3,7,8,9,10-hexahydro-1H-benzo[b]thieno[2,3-b]pyrazolo[3,4-d]pyridin-3-one]
